ChEMBL document CHEMBL1201862, “PubChem BioAssay data set” (2004)
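1) Cells in 96-well plates. 2) Compound, 48 h, 5 concentrations. 3) Linear interpolation between surrounding doses. 4) Unreached endpoint = highest concentration. The concentration for 50% growth inhibition is given as GI50.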 The source made the active and inactive calls. Rule as the data show it: active = GI50 up to about 1.1 µM and inactive = higher. Where a SMILES comes first, the peptide text is derived from it.

Tests used:
Test in all cases: inhibition of tumour cell growth, NCI panel, 48 h
[1] = tested on: MDA-N
[2] = tested on: ACHN
[3] = tested on: SN12C
[4] = tested on: PC-3
[5] = tested on: OVCAR-3
[6] = tested on: CCRF-CEM
[7] = tested on: HCT-116
[8] = tested on: OVCAR-8
[9] = tested on: RXF 393
[10] = tested on: HL-60
[11] = tested on: SNB-19
[12] = tested on: SNB-75
[13] = tested on: UO-31
[14] = tested on: CAKI-1
[15] = tested on: NCI-H460
[16] = tested on: T47D
[17] = tested on: SW-620
[18] = tested on: Hs-578T

Row | Structure (SMILES) | GI50 [1] | GI50 [2] | GI50 [3] | GI50 [4] | GI50 [5] | GI50 [6] | GI50 [7] | GI50 [8] | GI50 [9] | GI50 [10] | GI50 [11] | GI50 [12] | GI50 [13] | GI50 [14] | GI50 [15] | GI50 [16] | GI50 [17] | GI50 [18]
1 | O=C1NC(NNc2ccccc2)=N/C1=C\c1ccco1 | 26.9 µM (inactive) | 13.2 µM (inactive) | 22.1 µM (inactive) | 19.3 µM (inactive) | 17.5 µM (inactive) | 4.61 µM (inactive) | 14.3 µM (inactive) | 17.6 µM (inactive) | 13.4 µM (inactive) | 20.3 µM (inactive) | 43.5 µM (inactive) | 24.7 µM (inactive) | 27.8 µM (inactive) | 14.3 µM (inactive) | 22.4 µM (inactive) | 14 µM (inactive) | 18.1 µM (inactive) | 26.2 µM (inactive)
2 | COc1cc(/C=C2\CCc3cc(OC)c(OC)cc3C2=O)cc(OC)c1 | 1.45 µM (inactive) | 30.3 µM (inactive) | 5 µM (inactive) | 8.55 µM (inactive) | 4.47 µM (inactive) | 4.08 µM (inactive) | 3.81 µM (inactive) | 9.02 µM (inactive) | 4.9 µM (inactive) | 3.51 µM (inactive) | > 28.6 µM (inactive) | 21.3 µM (inactive) | 20.5 µM (inactive) | 8.67 µM (inactive) | 5.41 µM (inactive) | 5.9 µM (inactive) | 6.19 µM (inactive) | 23.9 µM (inactive)
3 | Sc1ccc2ccccc2c1CNCc1ccccc1 | 13.2 µM (inactive) | 19 µM (inactive) | 6.24 µM (inactive) | 18.8 µM (inactive) | 13.6 µM (inactive) | 3.72 µM (inactive) | 13.8 µM (inactive) | 20.5 µM (inactive) | 11.8 µM (inactive) | 5.77 µM (inactive) | 24.3 µM (inactive) | 15.7 µM (inactive) | 11.7 µM (inactive) | 15.7 µM (inactive) | 24.1 µM (inactive) | 19.3 µM (inactive) | 9.12 µM (inactive) | 22.7 µM (inactive)
4 | CC(=O)NC(CS)C(=O)NC(CO)C(=O)NC(CO)C(=O)NC(Cc1c[nH]c2ccccc12)C(=O)N1CCCC1C(=O)NC(CO)C(=O)NC(Cc1c[nH]c2ccccc12)C(=O)NC(Cc1c[nH]cn1)C(=O)NC(CO)C(=O)NC(Cc1c[nH]c2ccccc12)C(=O)NCC(=O)NCC(=O)NC(CC(=O)O)C(=O)NC(CCC(N)=O)C(=O)NC(CCCCN)C(=O)NC(Cc1ccccc1)C(=O)NC(CCCNC(=N)N)C(=O)NC(CCCCN)C(N)=O (stereo not drawn) (Ac-CSSWPSWHSWGGDQKFRK-NH2; configuration not given here) | > 25 µM (inactive) | > 25 µM (inactive) | > 25 µM (inactive) | > 25 µM (inactive) | > 25 µM (inactive) | > 25 µM (inactive) | > 25 µM (inactive) | > 25 µM (inactive) | > 25 µM (inactive) | > 25 µM (inactive) | > 25 µM (inactive) | > 25 µM (inactive) | > 25 µM (inactive) | > 25 µM (inactive) | > 25 µM (inactive) | > 25 µM (inactive) | > 25 µM (inactive) | > 25 µM (inactive)
5 | COc1cnc2cc(C(=O)O)c3ccccc3c2c1 | > 100 µM (inactive) | > 100 µM (inactive) | > 100 µM (inactive) | > 100 µM (inactive) | > 100 µM (inactive) | > 100 µM (inactive) | > 100 µM (inactive) | > 100 µM (inactive) | > 100 µM (inactive) | > 100 µM (inactive) | > 100 µM (inactive) | 58.3 µM (inactive) | > 100 µM (inactive) | > 100 µM (inactive) | > 100 µM (inactive) | > 100 µM (inactive) | > 100 µM (inactive) | > 100 µM (inactive)
6 | CC(C)(CCc1nc2ccccc2[nH]1)C(=O)O | > 100 µM (inactive) | > 100 µM (inactive) | > 100 µM (inactive) | > 100 µM (inactive) | > 100 µM (inactive) | > 100 µM (inactive) | > 100 µM (inactive) | > 100 µM (inactive) | > 100 µM (inactive) | > 100 µM (inactive) | > 100 µM (inactive) | > 100 µM (inactive) | > 100 µM (inactive) | > 100 µM (inactive) | > 100 µM (inactive) | > 100 µM (inactive) | > 100 µM (inactive) | > 100 µM (inactive)
7 | C=C1C(=O)O[C@H]2[C@@H](O)[C@H](C)CCC/C(C)=C/CC[C@@]3(C)O[C@@H]3C[C@@H]12 | 11.2 µM (inactive) | 2.16 µM (inactive) | 5.77 µM (inactive) | 13.7 µM (inactive) | 11.3 µM (inactive) | 1.07 µM (active) | 3.19 µM (inactive) | 4.38 µM (inactive) | 2.85 µM (inactive) | 2.47 µM (inactive) | 16.7 µM (inactive) | 15.1 µM (inactive) | 5.47 µM (inactive) | 2.33 µM (inactive) | 5.89 µM (inactive) | 3.4 µM (inactive) | 10.2 µM (inactive) | 14.7 µM (inactive)
8 | Cc1cnc2c(c1)C(=O)C1=C(C2=O)C2OC(=O)CC2OC1(C)C (stereo not drawn) | 0.281 µM (active) | 0.107 µM (active) | 0.161 µM (active) | 0.16 µM (active) | < 0.01 µM (active) | 0.0239 µM (active) | 0.0681 µM (active) | 0.29 µM (active) | 0.205 µM (active) | 0.0148 µM (active) | 1.16 µM (inactive) | 1.69 µM (inactive) | 0.458 µM (active) | 0.12 µM (active) | 0.76 µM (active) | 0.304 µM (active) | 0.0782 µM (active) | 0.301 µM (active)
9 | C[C@]12CC[C@H](O)CC1=CC[C@@H]1C2CC[C@]2(C)c3n[nH]nc3CC12 (stereo partly drawn) | 36.3 µM (inactive) | > 100 µM (inactive) | > 100 µM (inactive) | > 100 µM (inactive) | > 100 µM (inactive) | > 100 µM (inactive) | > 100 µM (inactive) | > 100 µM (inactive) | > 100 µM (inactive) | 44.4 µM (inactive) | > 100 µM (inactive) | 82 µM (inactive) | > 100 µM (inactive) | > 100 µM (inactive) | > 100 µM (inactive) | > 100 µM (inactive) | > 100 µM (inactive) | 38.6 µM (inactive)
10 | O=C(NCCc1ccccc1)c1cc(/C=C/c2cc(O)ccc2O)ccc1O | 2.96 µM (inactive) | 2.2 µM (inactive) | 4.92 µM (inactive) | 3.56 µM (inactive) | 2.67 µM (inactive) | 2.11 µM (inactive) | 1.81 µM (inactive) | 3.85 µM (inactive) | 1.93 µM (inactive) | 2.12 µM (inactive) | 6.71 µM (inactive) | 5.57 µM (inactive) | 1.7 µM (inactive) | 2.94 µM (inactive) | 9.44 µM (inactive) | 1.92 µM (inactive) | 5.71 µM (inactive) | 5.2 µM (inactive)
11 | COc1ccc2c(c1)CC[C@@H]1C2CC[C@]2(C)C(=O)N(C)C(=O)CC12 (stereo partly drawn) | > 100 µM (inactive) | > 100 µM (inactive) | > 100 µM (inactive) | > 100 µM (inactive) | > 100 µM (inactive) | > 100 µM (inactive) | > 100 µM (inactive) | > 100 µM (inactive) | 38.1 µM (inactive) | 15.7 µM (inactive) | > 100 µM (inactive) | 52.5 µM (inactive) | > 100 µM (inactive) | > 100 µM (inactive) | > 100 µM (inactive) | > 100 µM (inactive) | > 100 µM (inactive) | 42 µM (inactive)
